{"source": "ChEMBL document CHEMBL1201862", "about": "“PubChem BioAssay data set” (2004)", "key": {"Vero": {"test_system": "Vero", "experiment": "host cell cytotoxicity of antiviral hits, dose response, cytotoxicity control for West Nile virus antiviral project, secondary assay (AID 1650)", "format": "functional", "conditions": "Chlorocebus sabaeus"}, "[1]": {"biological_target": "T1, G-protein coupled receptor 55 (Homo sapiens, UniProt Q9Y2T6)", "T1 sequence (Q9Y2T6 whole entry)": "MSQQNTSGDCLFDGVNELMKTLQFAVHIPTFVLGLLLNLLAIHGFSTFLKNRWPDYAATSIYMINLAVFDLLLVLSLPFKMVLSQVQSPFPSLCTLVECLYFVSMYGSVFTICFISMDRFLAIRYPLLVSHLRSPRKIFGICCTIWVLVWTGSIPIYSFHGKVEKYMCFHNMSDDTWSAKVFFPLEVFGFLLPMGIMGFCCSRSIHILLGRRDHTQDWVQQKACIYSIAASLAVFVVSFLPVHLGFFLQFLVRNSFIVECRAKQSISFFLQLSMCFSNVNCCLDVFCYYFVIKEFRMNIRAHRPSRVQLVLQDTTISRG", "experiment": "GPR55 antagonists, SAR follow-up, counter-screen for GPR35 antagonist project, imaging, image-based (AID 2397)", "format": "functional"}, "[2]": {"biological_target": "T2, Replicative DNA helicase DnaB (Mycobacterium tuberculosis, UniProt P9WMR3)", "T2 sequence (P9WMR3 whole entry)": "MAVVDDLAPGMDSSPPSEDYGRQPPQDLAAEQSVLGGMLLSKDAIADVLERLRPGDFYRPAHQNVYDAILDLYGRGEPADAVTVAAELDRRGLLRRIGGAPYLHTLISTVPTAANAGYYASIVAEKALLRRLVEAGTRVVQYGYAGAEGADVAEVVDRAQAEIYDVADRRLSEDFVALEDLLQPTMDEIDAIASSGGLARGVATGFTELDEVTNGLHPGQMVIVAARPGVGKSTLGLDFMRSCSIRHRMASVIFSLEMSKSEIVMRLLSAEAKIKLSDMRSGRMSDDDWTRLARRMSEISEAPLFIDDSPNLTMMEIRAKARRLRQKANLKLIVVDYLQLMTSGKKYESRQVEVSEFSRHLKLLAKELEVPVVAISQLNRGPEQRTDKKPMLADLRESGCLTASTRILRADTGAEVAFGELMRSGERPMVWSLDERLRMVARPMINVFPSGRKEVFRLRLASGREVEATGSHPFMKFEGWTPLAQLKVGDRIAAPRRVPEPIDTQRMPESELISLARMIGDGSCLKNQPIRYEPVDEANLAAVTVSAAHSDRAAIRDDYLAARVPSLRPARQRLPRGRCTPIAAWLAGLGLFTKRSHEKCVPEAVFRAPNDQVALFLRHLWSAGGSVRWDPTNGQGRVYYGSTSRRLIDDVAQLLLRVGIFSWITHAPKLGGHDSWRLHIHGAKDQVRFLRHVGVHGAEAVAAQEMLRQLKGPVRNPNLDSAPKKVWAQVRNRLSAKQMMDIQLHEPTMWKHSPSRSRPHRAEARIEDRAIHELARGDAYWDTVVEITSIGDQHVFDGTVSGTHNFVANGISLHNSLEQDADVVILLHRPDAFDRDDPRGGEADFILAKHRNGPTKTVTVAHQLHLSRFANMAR", "experiment": "DnaB intein splicing inhibitors, dose response, biochemical, cell-free fluorescence (AID 449749)", "format": "functional"}, "Protein RecA": {"biological_target": "T3, Protein RecA (Mycobacterium tuberculosis, UniProt P9WHJ3)", "T3 sequence (P9WHJ3 whole entry)": "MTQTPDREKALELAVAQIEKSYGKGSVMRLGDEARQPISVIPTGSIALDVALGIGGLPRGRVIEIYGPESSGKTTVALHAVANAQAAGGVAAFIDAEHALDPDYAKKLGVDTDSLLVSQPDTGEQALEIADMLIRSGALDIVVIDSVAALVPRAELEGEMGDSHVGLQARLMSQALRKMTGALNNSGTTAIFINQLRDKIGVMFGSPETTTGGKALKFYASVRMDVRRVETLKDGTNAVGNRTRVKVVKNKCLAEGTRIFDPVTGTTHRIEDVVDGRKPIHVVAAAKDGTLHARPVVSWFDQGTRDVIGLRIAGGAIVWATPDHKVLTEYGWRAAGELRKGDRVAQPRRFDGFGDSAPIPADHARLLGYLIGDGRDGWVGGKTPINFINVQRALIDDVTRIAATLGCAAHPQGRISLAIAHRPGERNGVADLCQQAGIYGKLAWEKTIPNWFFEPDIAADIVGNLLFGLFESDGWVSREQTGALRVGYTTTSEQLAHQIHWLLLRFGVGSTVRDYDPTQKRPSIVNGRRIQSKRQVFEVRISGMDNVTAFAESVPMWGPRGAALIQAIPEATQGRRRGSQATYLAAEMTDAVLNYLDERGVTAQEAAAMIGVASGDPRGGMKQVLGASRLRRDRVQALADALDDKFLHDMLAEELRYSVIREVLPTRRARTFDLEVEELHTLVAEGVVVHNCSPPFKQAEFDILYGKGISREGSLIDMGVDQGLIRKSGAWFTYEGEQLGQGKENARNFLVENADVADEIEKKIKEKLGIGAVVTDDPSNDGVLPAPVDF", "experiment": "Fluorescence Cell-Free Homogeneous Dose Retest to Identify Inhibitors of RecA-Intein Splicing Activity. [Related pubchem assays (depositor defined):AID2097, AID2223, AID489010, AID492950]", "format": "functional"}, "[3]": {"biological_target": "T1, G-protein coupled receptor 55", "experiment": "GPR55 agonists via beta-arrestin recruitment, primary screen, imaging, U2OS cells, beta-arrestin-GFP redistribution (AID 1961)", "format": "functional"}, "Cannabinoid receptor 2 [4]": {"biological_target": "T4, Cannabinoid receptor 2 (Homo sapiens, UniProt P34972)", "T4 sequence (P34972 whole entry)": "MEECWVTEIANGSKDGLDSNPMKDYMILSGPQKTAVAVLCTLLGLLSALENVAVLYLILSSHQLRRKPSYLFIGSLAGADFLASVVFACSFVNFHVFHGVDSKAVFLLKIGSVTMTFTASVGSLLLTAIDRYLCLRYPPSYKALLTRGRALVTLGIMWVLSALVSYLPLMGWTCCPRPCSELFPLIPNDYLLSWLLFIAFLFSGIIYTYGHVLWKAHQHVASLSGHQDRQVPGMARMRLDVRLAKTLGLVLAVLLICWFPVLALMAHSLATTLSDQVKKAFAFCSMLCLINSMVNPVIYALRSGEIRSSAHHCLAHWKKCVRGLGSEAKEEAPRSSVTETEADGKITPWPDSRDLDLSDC", "experiment": "SAR analysis of antagonists of the Cannabinoid Receptor 2 using an Image-Based Assay - Set 2. [Related pubchem assays (depositor defined):AID1961, AID1965]", "format": "functional"}, "Cannabinoid receptor 2 [5]": {"biological_target": "T4, Cannabinoid receptor 2", "experiment": "SAR analysis of agonists of the Cannabinoid Receptor 2 using an Image-Based Assay - Set 2. [Related pubchem assays (depositor defined):AID1961, AID1965]", "format": "functional"}, "[6]": {"biological_target": "T1, G-protein coupled receptor 55", "experiment": "SAR analysis of selective Agonists of GPR55 using an Image-Based Assay. [Related pubchem assays (depositor defined):AID1961, AID1965]", "format": "functional"}, "Cannabinoid receptor 1": {"biological_target": "Cannabinoid receptor 1 (Homo sapiens, UniProt P21554)", "sequence (P21554 whole entry)": "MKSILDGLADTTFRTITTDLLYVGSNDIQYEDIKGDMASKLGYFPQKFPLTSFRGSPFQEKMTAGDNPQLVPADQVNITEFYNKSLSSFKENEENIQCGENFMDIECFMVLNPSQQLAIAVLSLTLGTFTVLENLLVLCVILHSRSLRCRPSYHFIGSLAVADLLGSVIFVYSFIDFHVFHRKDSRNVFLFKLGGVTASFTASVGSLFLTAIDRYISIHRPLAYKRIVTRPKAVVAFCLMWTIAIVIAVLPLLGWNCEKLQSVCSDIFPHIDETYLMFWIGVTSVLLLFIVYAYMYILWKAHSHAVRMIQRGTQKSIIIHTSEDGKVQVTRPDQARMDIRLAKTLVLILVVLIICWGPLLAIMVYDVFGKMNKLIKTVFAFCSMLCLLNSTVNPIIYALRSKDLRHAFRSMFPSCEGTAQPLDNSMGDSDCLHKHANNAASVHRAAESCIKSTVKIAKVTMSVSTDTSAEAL", "experiment": "SAR analysis of antagonists of the Cannabinoid Receptor 1 using an Image-Based Assay. [Related pubchem assays (depositor defined):AID1961, AID1965]", "format": "functional"}, "[7]": {"biological_target": "Glyceraldehyde-3-phosphate dehydrogenase (Homo sapiens, UniProt P04406)", "sequence (P04406 whole entry)": "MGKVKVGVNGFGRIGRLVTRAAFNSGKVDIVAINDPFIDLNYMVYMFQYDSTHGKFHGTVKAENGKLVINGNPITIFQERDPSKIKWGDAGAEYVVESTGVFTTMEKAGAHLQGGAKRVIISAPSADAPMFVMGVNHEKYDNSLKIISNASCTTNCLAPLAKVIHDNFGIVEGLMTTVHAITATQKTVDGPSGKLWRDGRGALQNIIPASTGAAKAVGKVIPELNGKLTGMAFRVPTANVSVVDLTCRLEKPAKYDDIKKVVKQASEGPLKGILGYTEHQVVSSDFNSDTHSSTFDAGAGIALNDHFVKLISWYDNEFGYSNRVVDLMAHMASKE"}, "Bcl-2-related protein A1 [8]": {"biological_target": "T5, Bcl-2-related protein A1 (Mus musculus, UniProt Q07440)", "T5 sequence (Q07440 whole entry)": "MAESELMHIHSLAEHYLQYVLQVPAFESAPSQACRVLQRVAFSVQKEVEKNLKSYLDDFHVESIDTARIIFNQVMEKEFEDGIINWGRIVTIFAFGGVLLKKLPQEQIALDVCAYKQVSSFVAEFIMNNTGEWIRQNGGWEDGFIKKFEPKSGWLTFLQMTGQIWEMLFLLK", "experiment": "Bfl-1 inhibitors blocking BH3 peptide binding, confirmation, biochemical, TR-FRET, mouse Bfl-1 (AID 621);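 further: TR-FRET binding of GST-Bfl-1 to FITC-labelled Bid peptide via terbium antibody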"}, "Bcl-2-related protein A1 [9]": {"biological_target": "T5, Bcl-2-related protein A1", "experiment": "Bfl-1 binding inhibitors, SAR follow-up, biochemical, fluorescence polarization (AID 1070)"}, "[10]": {"biological_target": "Nucleotide-binding oligomerization domain-containing protein 1 (Homo sapiens, UniProt Q9Y239)", "sequence (Q9Y239 whole entry, the tested form may be a part)": "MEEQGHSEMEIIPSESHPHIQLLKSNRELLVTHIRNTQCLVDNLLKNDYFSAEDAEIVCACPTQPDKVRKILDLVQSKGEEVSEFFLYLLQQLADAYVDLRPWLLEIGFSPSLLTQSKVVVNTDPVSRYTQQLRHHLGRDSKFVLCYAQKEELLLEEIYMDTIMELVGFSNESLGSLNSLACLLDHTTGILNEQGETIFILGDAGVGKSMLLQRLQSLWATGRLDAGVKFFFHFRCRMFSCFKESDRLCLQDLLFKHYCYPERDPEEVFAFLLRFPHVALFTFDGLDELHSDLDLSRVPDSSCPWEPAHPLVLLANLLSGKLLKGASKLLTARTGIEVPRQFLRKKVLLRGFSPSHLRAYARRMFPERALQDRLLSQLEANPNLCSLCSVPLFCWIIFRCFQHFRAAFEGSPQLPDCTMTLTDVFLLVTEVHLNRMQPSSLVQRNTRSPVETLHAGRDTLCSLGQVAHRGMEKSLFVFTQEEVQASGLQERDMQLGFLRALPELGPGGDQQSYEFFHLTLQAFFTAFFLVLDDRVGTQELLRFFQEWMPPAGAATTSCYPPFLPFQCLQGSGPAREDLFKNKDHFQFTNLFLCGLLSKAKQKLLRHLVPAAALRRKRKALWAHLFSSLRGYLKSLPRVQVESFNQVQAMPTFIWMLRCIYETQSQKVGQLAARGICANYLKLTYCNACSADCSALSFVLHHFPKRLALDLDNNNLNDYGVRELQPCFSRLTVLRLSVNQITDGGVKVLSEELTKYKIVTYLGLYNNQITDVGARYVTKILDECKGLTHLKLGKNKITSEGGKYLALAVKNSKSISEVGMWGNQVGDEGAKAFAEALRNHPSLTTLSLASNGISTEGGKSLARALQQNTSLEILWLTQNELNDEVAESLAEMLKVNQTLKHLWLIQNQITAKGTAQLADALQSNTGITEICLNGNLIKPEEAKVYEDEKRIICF", "experiment": "SAR analysis of compounds that inhibit NOD1 - Set 3. [Related pubchem assays (depositor defined):AID1566, AID1575, AID1578, AID1849, AID1852, AID2333, AID2335, AID2466]", "format": "functional"}, "Tumor necrosis factor": {"biological_target": "Tumor necrosis factor (Homo sapiens, UniProt P01375)", "sequence (P01375 whole entry)": "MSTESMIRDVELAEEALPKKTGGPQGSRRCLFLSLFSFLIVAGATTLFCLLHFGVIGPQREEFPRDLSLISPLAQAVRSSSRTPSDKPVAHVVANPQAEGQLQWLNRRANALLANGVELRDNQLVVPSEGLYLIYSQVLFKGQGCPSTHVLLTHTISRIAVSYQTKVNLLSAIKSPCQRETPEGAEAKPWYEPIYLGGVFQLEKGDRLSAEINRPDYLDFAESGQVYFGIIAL", "experiment": "TNFa-triggered NF-kB activation inhibitors, SAR follow-up, cell-based, set 3 (AID 2801)", "format": "functional"}, "HEK293": {"test_system": "HEK293", "experiment": "SAR analysis of compounds that are cytotoxic to HEK293 - Set 3. [Related pubchem assays (depositor defined):AID1575, AID1578, AID1848, AID1849, AID2001, AID2333, AID2334, AID2335, AID2337, AID2469]", "format": "functional, cell-based", "conditions": "Homo sapiens"}, "[11]": {"biological_target": "Nucleotide-binding oligomerization domain-containing protein 2 (Homo sapiens, UniProt Q9HC29)", "sequence (Q9HC29 whole entry, the tested form may be a part)": "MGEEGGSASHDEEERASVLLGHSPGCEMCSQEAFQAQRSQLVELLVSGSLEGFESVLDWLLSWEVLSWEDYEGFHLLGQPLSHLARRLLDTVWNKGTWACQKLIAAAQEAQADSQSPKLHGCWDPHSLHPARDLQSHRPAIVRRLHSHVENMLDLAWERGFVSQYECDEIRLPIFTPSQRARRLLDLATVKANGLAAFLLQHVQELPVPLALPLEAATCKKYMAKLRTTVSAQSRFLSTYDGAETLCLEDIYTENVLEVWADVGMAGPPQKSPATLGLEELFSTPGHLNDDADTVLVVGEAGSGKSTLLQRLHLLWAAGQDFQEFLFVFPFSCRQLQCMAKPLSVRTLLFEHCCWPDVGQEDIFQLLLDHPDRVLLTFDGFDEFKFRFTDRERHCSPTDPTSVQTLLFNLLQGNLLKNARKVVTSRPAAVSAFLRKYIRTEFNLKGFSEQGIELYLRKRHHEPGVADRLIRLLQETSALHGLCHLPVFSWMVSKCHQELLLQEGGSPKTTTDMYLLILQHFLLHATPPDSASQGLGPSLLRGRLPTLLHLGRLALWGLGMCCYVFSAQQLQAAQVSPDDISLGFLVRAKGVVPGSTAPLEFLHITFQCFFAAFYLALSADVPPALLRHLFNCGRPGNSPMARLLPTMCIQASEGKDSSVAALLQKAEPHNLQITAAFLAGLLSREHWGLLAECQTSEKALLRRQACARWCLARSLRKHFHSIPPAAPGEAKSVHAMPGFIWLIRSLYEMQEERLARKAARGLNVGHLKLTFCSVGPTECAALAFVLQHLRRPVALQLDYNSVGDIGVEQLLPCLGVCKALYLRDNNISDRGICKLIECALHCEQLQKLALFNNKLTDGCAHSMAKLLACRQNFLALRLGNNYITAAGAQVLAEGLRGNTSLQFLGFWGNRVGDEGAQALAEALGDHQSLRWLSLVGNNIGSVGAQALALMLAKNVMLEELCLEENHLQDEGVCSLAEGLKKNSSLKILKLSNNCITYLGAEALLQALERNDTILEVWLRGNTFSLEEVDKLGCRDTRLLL", "experiment": "NOD2 signaling inhibitors, analog potency, SAR follow-up, cell-based, set 3 (AID 2799)", "format": "functional"}, "[12]": {"experiment": "Luminescence Cell-Based Dose Retest to Confirm Inhibitors of Cancer Stem Cells. [Related pubchem assays (depositor defined):AID2717, AID2721]", "format": "functional", "conditions": "Homo sapiens"}, "[13]": {"experiment": "(§1) Late stage assay provider results from the probe development effort to identify inhibitors of Protein Phosphatase Methylesterase 1 (PME-1): luminescence-based biochemical dose response assay to determine cytotoxicity of inhibitor compounds. [Related pubchem assays (depositor defined):AID2130, AID2143, AID2171, AID2174, AID2177, AID2232, AID2233, AID2291, AID2363, AID2365, AID2366, AID2368, AID2369, AID2371, AID463124, AID463130, AID463131, AID463132, AID463146, AID463149] Panel member name: Fetal Calf Serum", "format": "toxicity"}, "[14]": {"experiment": "as §1, with “Serum-free Media” for “Fetal Calf Serum”", "format": "toxicity"}, "[15]": {"experiment": "A549 cell cytotoxicity, dose response, cytotoxicity control, plate reader, cherry-pick, antagonist series (AID 743412)", "format": "functional, cell-based"}, "[16]": {"experiment": "HepG2 cell cytotoxicity, dose response, cytotoxicity control, plate reader, cherry-pick, antagonist series (AID 743416)", "format": "functional, cell-based"}, "[17]": {"experiment": "LGR2 antagonists, dose response, cell-based, HEK293, CRE-luciferase reporter, cherry pick, set 2 (AID 743343)", "format": "functional"}, "[18]": {"experiment": "MC4R antagonists, dose response, counter-screen for LGR2 antagonist project, cell-based, plate reader, cherry pick (AID 743444)", "format": "functional"}, "[19]": {"experiment": "HEK293 cell cytotoxicity, dose response, cytotoxicity control, plate reader, cherry-picked samples (AID 743446)", "format": "functional, cell-based"}, "[20]": {"biological_target": "Voltage-dependent T-type calcium channel subunit alpha-1H (Homo sapiens, UniProt O95180)", "experiment": "Cav3.2 T-type channel blockers, cell-based, SynthLib3 library, HEK293 Cav3.2, fluorescence (AID 493041)", "format": "functional"}}, "note": "Activity calls are given as the source filed them.", "data": [{"smiles": "O=C(CCCN1C(=O)/C(=C/c2ccccc2)SC1=S)Nc1ccc(O)cc1", "values": [{"measurement": "CC50", "setting": "Vero", "value": "60 µM (active)"}, {"measurement": "IC50", "setting": "[1]", "value": "> 32 µM (inactive)"}, {"measurement": "AC50", "setting": "[2]", "value": "12 µM (active)"}, {"measurement": "EC50", "setting": "Protein RecA", "value": "> 380 µM (inactive)"}]}, {"smiles": "CC(Sc1nc2cc(Cl)ccc2s1)C(=O)Nc1cccc(S(=O)(=O)N2CCOCC2)c1", "note": "(configuration not stated)", "values": [{"measurement": "EC50", "setting": "[3]", "value": "0.961 µM (active)"}, {"measurement": "IC50", "setting": "Cannabinoid receptor 2 [4]", "value": "> 32 µM (inactive)"}, {"measurement": "EC50", "setting": "Cannabinoid receptor 2 [5]", "value": "> 32 µM (inactive)"}, {"measurement": "EC50", "setting": "[6]", "value": "0.761 µM (active)"}, {"measurement": "IC50", "setting": "Cannabinoid receptor 1", "value": "> 32 µM (inactive)"}]}, {"smiles": "COc1ccc(-c2cc(N)n(S(=O)(=O)c3ccc(F)cc3)n2)cc1OC", "values": [{"measurement": "IC50", "setting": "[7]", "value": "> 100 µM (not active)"}, {"measurement": "IC50", "setting": "Bcl-2-related protein A1 [8]", "value": "> 100 µM (not active)"}, {"measurement": "IC50", "setting": "Bcl-2-related protein A1 [9]", "value": "> 100 µM (not active)"}, {"measurement": "IC50", "setting": "[10]", "value": "> 20 µM (inactive)"}, {"measurement": "IC50", "setting": "Tumor necrosis factor", "value": "> 20 µM (inactive)"}, {"measurement": "IC50", "setting": "HEK293", "value": "> 20 µM (inactive)"}, {"measurement": "IC50", "setting": "[11]", "value": "> 20 µM (inactive)"}]}, {"smiles": "CCOC(=O)N1C(=O)[C@@](c2ccc(Cl)cc2)(C(C)C)N1C(=O)OCC", "values": [{"measurement": "AC50", "setting": "[12]", "value": "3.99 µM (active)"}, {"measurement": "CC50", "setting": "[13]", "value": "> 10 µM (inactive)"}, {"measurement": "CC50", "setting": "[14]", "value": "> 10 µM (inactive)"}, {"measurement": "AC50", "setting": "[2]", "value": "7.28 µM (active)"}, {"measurement": "EC50", "setting": "Protein RecA", "value": "16.2 µM (active)"}, {"measurement": "AC50", "setting": "[15]", "value": "22.4 µM (active)"}, {"measurement": "AC50", "setting": "[16]", "value": "40.9 µM (active)"}, {"measurement": "AC50", "setting": "[17]", "value": "17.3 µM (active)"}, {"measurement": "AC50", "setting": "[18]", "value": "26.6 µM (active)"}, {"measurement": "AC50", "setting": "[19]", "value": "49.1 µM (active)"}]}, {"smiles": "CC(C)CCc1nnc(NC(=O)COc2ccc(F)cc2Cl)o1", "values": [{"measurement": "EC50", "setting": "[20]", "value": "10 µM (active)"}]}]}
